Experiment: Solubility of compound I in water
Type: physicochemical
Excerpt: The bitter taste of compound I can also be overcome by using flavouring agents (1.5) and/or sweetening agents (1.6).

COc1ccccc1Oc1c(NS(=O)(=O)c2ccc(C(C)(C)C)cc2)nc(-c2ncccn2)nc1OCCO [compound I, 4-tert-butyl-N-[6-(2-hydroxy-ethoxy)-5-(2-methoxy-phenoxy)-2-(pyrimidin-2-yl)-pyrimidin-4-yl]-benzenesulfonamide]
Effect of an acidifying agent on solubility of compound I (presence of an acidifying agent (1.4), tablet dispersed with water): decreases the solubility
Solubility in water (water): practically insoluble

Reference: patent US8309126B2, “Dispersible bosentan tablet” (Actelion Pharmaceuticals, Ltd., priority 2005, dated 2012)
